# Measured values reported in ChEMBL document CHEMBL5715949, “Discovery of a selective irreversible BMX inhibitor for prostate cancer” (ACS Chem Biol, 2013).
# Calls of active or inactive are those of the source. No cut-off for these calls is given here.
# Columns and labels:
# [1] = biological target: Insulin receptor-related protein (Homo sapiens) (UniProt P14616); assay: Inhibition of INSRR (unknown origin) assessed as remaining activity at 1 uM by Kinome scan method relative to control
# [2] = biological target: Casein kinase I isoform delta (Homo sapiens) (UniProt P48730); assay: Inhibition of CSNK1D (unknown origin) assessed as remaining activity at 1 uM by Kinome scan method relative to control
# [3] = Down regulation of BMX protein expression in human RV-1 cells expressing wild type BMX assessed protein expression level at 2.5 uM pre incubated for 4 hrs followed by compound wash out and additon of CHX and measured after 24 hrs by immunoblot analysis (reference value: 0.98 to 1.01); type: functional
# [4] = biological target: STE20-like serine/threonine-protein kinase (Homo sapiens) (UniProt Q9H2G2); assay: Inhibition of SLK (unknown origin) assessed as remaining activity at 1 uM by Kinome scan method relative to control
# [5] = biological target: RAC-alpha serine/threonine-protein kinase (Homo sapiens) (UniProt P31749); assay: Inhibition of AKT1 (unknown origin) assessed as remaining activity at 1 uM by Kinome scan method relative to control
# Sequence of RAC-alpha serine/threonine-protein kinase (Homo sapiens) (P31749 whole entry): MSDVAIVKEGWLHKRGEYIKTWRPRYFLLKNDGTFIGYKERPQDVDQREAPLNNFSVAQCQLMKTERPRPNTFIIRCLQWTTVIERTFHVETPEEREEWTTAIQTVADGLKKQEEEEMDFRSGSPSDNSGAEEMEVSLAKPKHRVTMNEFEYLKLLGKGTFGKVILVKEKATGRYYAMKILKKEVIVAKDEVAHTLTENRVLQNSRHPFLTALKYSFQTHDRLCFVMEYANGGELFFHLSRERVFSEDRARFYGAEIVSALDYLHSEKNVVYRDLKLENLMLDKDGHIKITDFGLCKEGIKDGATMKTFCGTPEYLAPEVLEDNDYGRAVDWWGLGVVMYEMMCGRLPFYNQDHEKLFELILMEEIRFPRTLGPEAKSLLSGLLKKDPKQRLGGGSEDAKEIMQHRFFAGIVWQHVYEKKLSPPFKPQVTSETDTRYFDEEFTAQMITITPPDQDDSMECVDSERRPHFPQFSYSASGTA
# [6] = biological target: 5'-AMP-activated protein kinase catalytic subunit alpha-2 (Homo sapiens) (UniProt P54646); assay: Inhibition of AMPK-alpha2 (unknown origin) assessed as remaining activity at 1 uM by Kinome scan method relative to control
# Sequence of 5'-AMP-activated protein kinase catalytic subunit alpha-2 (Homo sapiens) (P54646 whole entry, looked up): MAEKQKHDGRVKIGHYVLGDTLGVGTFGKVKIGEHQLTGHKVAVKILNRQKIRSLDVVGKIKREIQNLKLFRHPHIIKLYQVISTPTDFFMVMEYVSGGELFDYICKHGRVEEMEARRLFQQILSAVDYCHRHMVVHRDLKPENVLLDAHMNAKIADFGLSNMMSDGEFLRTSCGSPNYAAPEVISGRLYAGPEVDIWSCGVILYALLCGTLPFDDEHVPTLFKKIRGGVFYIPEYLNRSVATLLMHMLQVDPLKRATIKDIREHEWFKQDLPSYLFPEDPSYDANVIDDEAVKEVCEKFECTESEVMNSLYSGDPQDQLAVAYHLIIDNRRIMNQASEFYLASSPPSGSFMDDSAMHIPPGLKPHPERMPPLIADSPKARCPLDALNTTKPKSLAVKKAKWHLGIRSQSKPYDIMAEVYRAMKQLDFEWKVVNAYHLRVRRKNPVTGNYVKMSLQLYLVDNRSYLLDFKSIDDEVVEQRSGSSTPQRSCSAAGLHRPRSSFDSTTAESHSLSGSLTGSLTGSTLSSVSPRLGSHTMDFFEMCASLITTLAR
# [7] = biological target: Serine/threonine-protein kinase PAK 5 (Homo sapiens) (UniProt Q9P286); assay: Inhibition of PAK7 (unknown origin) assessed as remaining activity at 1 uM by Kinome scan method relative to control
# [8] = biological target: Bone morphogenetic protein receptor type-1A (Homo sapiens) (UniProt P36894); assay: Inhibition of BMPR1A (unknown origin) assessed as remaining activity at 1 uM by Kinome scan method relative to control
# Sequence of Bone morphogenetic protein receptor type-1A (Homo sapiens) (P36894 whole entry): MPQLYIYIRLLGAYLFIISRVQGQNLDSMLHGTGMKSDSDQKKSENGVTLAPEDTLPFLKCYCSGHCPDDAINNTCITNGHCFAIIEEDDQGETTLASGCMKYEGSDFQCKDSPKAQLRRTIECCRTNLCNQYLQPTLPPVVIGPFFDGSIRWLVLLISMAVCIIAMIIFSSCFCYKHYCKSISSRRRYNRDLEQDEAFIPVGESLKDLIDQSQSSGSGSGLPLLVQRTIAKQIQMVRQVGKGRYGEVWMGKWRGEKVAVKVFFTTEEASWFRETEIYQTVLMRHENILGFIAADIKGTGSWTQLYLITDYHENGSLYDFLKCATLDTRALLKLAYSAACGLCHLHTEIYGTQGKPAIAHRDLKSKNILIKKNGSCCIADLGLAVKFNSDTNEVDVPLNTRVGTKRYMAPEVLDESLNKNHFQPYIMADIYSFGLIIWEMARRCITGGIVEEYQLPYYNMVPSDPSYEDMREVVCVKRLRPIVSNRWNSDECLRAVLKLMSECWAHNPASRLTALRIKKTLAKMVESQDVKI
# [9] = tested on: Mast/stem cell growth factor receptor Kit (Homo sapiens), P10721 [D816V]; assay: Inhibition of KIT D816V mutant (unknown origin) assessed as remaining activity at 1 uM by Kinome scan method relative to control
# [10] = biological target: Tyrosine-protein kinase Mer (Homo sapiens) (UniProt Q12866); assay: Inhibition of MERTK (unknown origin) assessed as remaining activity at 1 uM by Kinome scan method relative to control
# [11] = tested on: RV-1; assay: Antiproliferative activity against human RV-1 cells assessed as reduction in cell viability at 500 to 2500 nM incubated for 5 days in presence of MK2206 by CellTiter-Glo assay; type: functional, cell-based; conditions: dose 500-2500 nM, time 5.0 day
# [12] = biological target: Focal adhesion kinase 1 (Homo sapiens) (UniProt Q05397); assay: Inhibition of FAK (unknown origin) assessed as remaining activity at 1 uM by Kinome scan method relative to control
# [13] = tested on: Proto-oncogene tyrosine-protein kinase receptor Ret (Homo sapiens), P07949 [V804M]; assay: Inhibition of RET V804M (unknown origin) assessed as remaining activity at 1 uM by Kinome scan method relative to control
# [14] = biological target: Serine/threonine-protein kinase pim-3 (Homo sapiens) (UniProt Q86V86); assay: Inhibition of PIM3 (unknown origin) assessed as remaining activity at 1 uM by Kinome scan method relative to control
# [15] = Inhibition of PI3K/AKT/mTOR signalling pathway in human RV-1 cells assessed as decrease in S6K phosphorylation at T389 residue at 2.5 uM incubated for 5 days by immunoblot analysis; type: cell-based; conditions: time 5.0 day
# [16] = biological target: Phosphatidylinositol 4,5-bisphosphate 3-kinase catalytic subunit gamma isoform (Homo sapiens) (UniProt P48736); assay: Inhibition of PIK3CG (unknown origin) assessed as remaining activity at 1 uM by Kinome scan method relative to control
# [17] = tested on: BaF3; assay: Antiproliferative activity against mouse BaF3 cells expressing TEL-fused BLK assessed growth inhibition incubated for 2 to 5 days by CellTiter-Glo assay; type: functional; conditions: time 2-5 day
# [18] = biological target: Serine/threonine-protein kinase 3 (Homo sapiens) (UniProt Q13188); assay: Inhibition of MST2 (unknown origin) assessed as remaining activity at 1 uM by Kinome scan method relative to control
# Sequence of Serine/threonine-protein kinase 3 (Homo sapiens) (Q13188 whole entry): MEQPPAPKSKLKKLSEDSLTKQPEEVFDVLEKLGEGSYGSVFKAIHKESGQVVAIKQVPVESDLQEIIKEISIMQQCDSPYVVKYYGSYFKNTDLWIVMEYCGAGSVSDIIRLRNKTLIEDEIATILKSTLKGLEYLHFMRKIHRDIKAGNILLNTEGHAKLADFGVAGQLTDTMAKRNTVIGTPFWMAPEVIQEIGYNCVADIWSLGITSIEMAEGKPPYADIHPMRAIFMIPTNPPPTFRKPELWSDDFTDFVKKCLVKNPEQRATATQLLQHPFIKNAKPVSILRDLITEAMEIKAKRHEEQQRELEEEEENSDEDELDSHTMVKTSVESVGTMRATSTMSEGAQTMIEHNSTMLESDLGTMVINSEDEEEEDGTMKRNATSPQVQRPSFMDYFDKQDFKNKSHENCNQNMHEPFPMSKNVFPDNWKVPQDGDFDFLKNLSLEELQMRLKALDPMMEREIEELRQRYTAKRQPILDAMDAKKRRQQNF
# [19] = biological target: Rho-associated protein kinase 2 (Homo sapiens) (UniProt O75116); assay: Inhibition of ROCK2 (unknown origin) assessed as remaining activity at 1 uM by Kinome scan method relative to control
# [20] = biological target: SRSF protein kinase 1 (Homo sapiens) (UniProt Q96SB4); assay: Inhibition of SRPK1 (unknown origin) assessed as remaining activity at 1 uM by Kinome scan method relative to control
# [21] = biological target: Ephrin type-A receptor 6 (Homo sapiens) (UniProt Q9UF33); assay: Inhibition of EPHA6 (unknown origin) assessed as remaining activity at 1 uM by Kinome scan method relative to control
# Sequence of Ephrin type-A receptor 6 (Homo sapiens) (Q9UF33 whole entry): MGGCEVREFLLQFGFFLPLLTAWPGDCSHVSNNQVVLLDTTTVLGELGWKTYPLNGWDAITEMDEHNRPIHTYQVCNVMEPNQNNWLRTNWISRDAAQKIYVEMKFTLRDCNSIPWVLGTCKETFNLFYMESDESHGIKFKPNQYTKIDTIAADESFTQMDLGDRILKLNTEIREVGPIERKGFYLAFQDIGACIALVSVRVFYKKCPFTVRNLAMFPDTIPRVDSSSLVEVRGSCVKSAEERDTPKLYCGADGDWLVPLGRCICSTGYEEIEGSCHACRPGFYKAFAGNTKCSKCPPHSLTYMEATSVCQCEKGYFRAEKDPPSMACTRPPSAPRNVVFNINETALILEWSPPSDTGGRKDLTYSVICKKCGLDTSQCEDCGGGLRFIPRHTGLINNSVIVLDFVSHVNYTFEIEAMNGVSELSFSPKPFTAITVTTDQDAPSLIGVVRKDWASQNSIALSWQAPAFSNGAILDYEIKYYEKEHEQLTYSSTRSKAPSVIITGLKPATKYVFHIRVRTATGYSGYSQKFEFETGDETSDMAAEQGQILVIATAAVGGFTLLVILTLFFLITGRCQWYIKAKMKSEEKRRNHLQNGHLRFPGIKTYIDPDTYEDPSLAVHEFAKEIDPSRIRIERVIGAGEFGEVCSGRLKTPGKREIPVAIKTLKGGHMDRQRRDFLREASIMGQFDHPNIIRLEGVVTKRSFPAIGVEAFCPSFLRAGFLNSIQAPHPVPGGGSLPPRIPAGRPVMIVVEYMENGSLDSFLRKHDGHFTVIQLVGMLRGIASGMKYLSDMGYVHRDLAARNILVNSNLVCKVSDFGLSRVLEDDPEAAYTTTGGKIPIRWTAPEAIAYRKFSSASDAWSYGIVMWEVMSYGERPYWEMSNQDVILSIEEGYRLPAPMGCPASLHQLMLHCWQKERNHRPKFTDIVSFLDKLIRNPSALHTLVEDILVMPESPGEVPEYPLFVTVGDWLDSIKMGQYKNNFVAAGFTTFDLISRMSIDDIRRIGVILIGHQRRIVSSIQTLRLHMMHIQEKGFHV
# [22] = biological target: Proto-oncogene tyrosine-protein kinase receptor Ret (Homo sapiens) (UniProt P07949); assay: Inhibition of RET (unknown origin) assessed as remaining activity at 1 uM by Kinome scan method relative to control
# Sequence of Proto-oncogene tyrosine-protein kinase receptor Ret (Homo sapiens) (P07949 whole entry): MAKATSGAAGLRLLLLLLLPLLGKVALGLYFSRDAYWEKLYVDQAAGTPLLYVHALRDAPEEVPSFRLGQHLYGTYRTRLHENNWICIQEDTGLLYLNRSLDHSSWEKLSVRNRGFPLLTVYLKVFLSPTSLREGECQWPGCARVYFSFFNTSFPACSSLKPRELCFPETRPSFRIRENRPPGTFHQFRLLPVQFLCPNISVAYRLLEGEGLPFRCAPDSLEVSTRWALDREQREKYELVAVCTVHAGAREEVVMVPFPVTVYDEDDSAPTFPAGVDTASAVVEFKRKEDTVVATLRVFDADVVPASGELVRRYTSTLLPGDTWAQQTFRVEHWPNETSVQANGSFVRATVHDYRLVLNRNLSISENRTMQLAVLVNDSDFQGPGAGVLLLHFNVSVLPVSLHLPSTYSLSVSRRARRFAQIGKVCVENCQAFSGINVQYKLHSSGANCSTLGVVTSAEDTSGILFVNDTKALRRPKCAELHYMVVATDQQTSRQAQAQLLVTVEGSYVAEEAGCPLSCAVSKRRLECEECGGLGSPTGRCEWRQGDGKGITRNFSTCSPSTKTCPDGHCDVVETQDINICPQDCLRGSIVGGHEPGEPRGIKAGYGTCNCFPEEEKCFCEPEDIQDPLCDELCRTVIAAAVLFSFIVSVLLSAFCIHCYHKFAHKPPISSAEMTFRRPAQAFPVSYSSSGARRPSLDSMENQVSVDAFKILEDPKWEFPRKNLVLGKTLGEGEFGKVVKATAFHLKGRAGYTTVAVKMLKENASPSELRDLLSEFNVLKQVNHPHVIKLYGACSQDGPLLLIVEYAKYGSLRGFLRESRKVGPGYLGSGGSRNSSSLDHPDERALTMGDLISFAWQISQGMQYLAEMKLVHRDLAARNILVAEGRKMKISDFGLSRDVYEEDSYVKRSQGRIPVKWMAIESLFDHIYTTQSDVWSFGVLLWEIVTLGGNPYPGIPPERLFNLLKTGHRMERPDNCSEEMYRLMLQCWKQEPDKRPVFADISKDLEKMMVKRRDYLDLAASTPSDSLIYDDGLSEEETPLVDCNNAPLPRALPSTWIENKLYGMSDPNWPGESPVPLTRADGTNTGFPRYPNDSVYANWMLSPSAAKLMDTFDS
# [23] = tested on: VCaP; assay: Antiproliferative activity against human VCaP cells assessed growth inhibition incubated for 2 to 5 days by CellTiter-Glo assay; type: functional; conditions: time 2-5 day
# [24] = biological target: Serine/threonine-protein kinase ULK1 (Homo sapiens) (UniProt O75385); assay: Inhibition of ULK1 (unknown origin) assessed as remaining activity at 1 uM by Kinome scan method relative to control
# [25] = biological target: Serine/threonine-protein kinase PknB (Mycobacterium tuberculosis) (UniProt P9WI81); assay: Inhibition of Mycobacterium tuberculosis PknB assessed as remaining activity at 1 uM by Kinome scan method relative to control
# [26] = biological target: cAMP-dependent protein kinase catalytic subunit beta (Homo sapiens) (UniProt P22694); assay: Inhibition of PKAC-beta (unknown origin) assessed as remaining activity at 1 uM by Kinome scan method relative to control
# [27] = tested on: BaF3; assay: Antiproliferative activity against mouse BaF3 cells expressing TEL-fused BMX assessed growth inhibition incubated for 2 to 5 days by CellTiter-Glo assay; type: functional, cell-based
# [28] = Antiproliferative activity against human RV-1 cells assessed growth inhibition incubated for 2 to 5 days by CellTiter-Glo assay; type: functional; conditions: time 2-5 day
# [29] = biological target: Tyrosine-protein kinase Fgr (Homo sapiens) (UniProt P09769); assay: Inhibition of FGR (unknown origin) assessed as remaining activity at 1 uM by Kinome scan method relative to control
# [30] = biological target: Tyrosine-protein kinase JAK1 (Homo sapiens) (UniProt P23458); assay: Inhibition of JAK1 JH2 domain (unknown origin) assessed as remaining activity at 1 uM by Kinome scan method relative to control
# [31] = biological target: Cyclin-dependent kinase 5 (Homo sapiens) (UniProt Q00535); assay: Inhibition of CDK5 (unknown origin) assessed as remaining activity at 1 uM by Kinome scan method relative to control
# [32] = biological target: Tyrosine-protein kinase ZAP-70 (Homo sapiens) (UniProt P43403); assay: Inhibition of ZAP70 (unknown origin) assessed as remaining activity at 1 uM by Kinome scan method relative to control
# [33] = biological target: Dual specificity mitogen-activated protein kinase kinase 2 (Homo sapiens) (UniProt P36507); assay: Inhibition of MEK2 (unknown origin) assessed as remaining activity at 1 uM by Kinome scan method relative to control
# Sequence of Dual specificity mitogen-activated protein kinase kinase 2 (Homo sapiens) (P36507 whole entry): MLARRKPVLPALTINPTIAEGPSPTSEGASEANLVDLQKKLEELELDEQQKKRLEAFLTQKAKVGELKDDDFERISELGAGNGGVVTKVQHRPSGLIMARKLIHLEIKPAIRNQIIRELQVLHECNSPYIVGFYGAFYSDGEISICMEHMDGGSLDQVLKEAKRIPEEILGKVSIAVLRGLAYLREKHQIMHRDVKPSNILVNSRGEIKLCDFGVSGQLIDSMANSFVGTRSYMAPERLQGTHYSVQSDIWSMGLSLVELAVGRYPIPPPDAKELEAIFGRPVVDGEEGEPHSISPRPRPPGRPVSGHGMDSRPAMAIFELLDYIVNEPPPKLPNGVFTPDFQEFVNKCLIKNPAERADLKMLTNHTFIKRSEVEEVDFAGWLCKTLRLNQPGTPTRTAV
smiles,measurement,setting,value
C=CC(=O)Nc1cc(-n2c(=O)ccc3cnc4ccc(-c5ccc(NS(C)(=O)=O)cc5)cc4c32)ccc1C,Activity,[1],98%
same,Activity,[2],84%
same,Activity,[3],0.32
same,Activity,[4],59%
same,Activity,[5],12%
same,Activity,[6],92%
same,Activity,[7],98%
same,Activity,[8],84%
same,Activity,[9],69%
same,Activity,[10],72%
same,Activity,[11],Active
same,Activity,[12],96%
same,Activity,[13],85%
same,Activity,[14],83%
same,inhibition,[15],Active
same,Activity,[16],2.8%
same,GI50,[17],3640 nM
same,Activity,[18],62%
same,Activity,[19],87%
same,Activity,[20],78%
same,Activity,[21],96%
same,Activity,[22],88%
same,GI50,[23],2460 nM
same,Activity,[24],84%
same,Activity,[25],41%
same,Activity,[26],79%
same,IC50,[27],569 nM
same,GI50,[27]; time 2-5 day,25 nM
same,GI50,[28],2530 nM
same,Activity,[29],72%
same,Activity,[30],99%
same,Activity,[31],88%
same,Activity,[32],91%
same,Activity,[33],96%
